Measurements reported in patent US5932623A, “Process for the production of fruit polyphenols from unripe rosaceae fruit” (The Nikka Whisky Distilling Co., Ltd.,, priority 1993, dated 1999).
Like-named read-outs stand apart in the source and are kept apart here. Each block holds one compound with its values, some of them ahead of it.

What was measured:
[1] = Test method for antioxidative activity (peroxide formation from linolic acid, iron rhodanide method); conditions: compound added at 2 μM/g (linolic acid); one week after addition; FIG. 4
Experimental: 5 ml of a base solution (ethanol containing 4% of linolic acid) was mixed with 4 ml of a phosphate buffer solution (pH=7.0) and 1 ml of a sample solution in a tightly stoppered test tube. The test tube was kept in a 50° C. thermostat under light shielding. Also kept under the same conditions were a test tube (control) containing ethanol in place of linolic acid and a test tube (blank) containing the sample solvent in place of the sample.
During the storage period, the reaction mixture was sampled with the lapse of time to quantitatively determine the amount of peroxide formed by the isothiocyanate method (the iron rhodanide method).

[2] = target: T1, GTase (glucosyltransferase) of S. sobrinus (Streptococcus downei, UniProt P27470); test: Test for GTase-inhibiting activity (insoluble glucan formation, turbidity at 550 nm); assay type: biochemical, Streptococcus sobrinus ATCC 33478; conditions: for GTase-inhibiting activity (in words): FIG. 17 and 18
T1 construct: Centrifugation was conducted to remove bacterial cells and obtain a supernatant; made in house; host or cells: S. sobrinus culture supernatant (native secreted enzyme, ammonium sulfate and hydroxyapatite purified)
Experimental: S. sobrinus was cultured in a TTY medium [Agric. Biol. Chem., 54 (11), pp. 2925-2929, 1990] at 37° C. for 18 hours. Centrifugation was conducted to remove bacterial cells and obtain a supernatant. To the supernatant was added ammonium sulfate to 50% saturation. Then, centrifugation was conducted to recover the resulting precipitate. The precipitate was redissolved in a 0.05 M phosphate buffer solution (pH 6.5). The resulting solution was dialyzed with the same buffer solution. The GTase in the dialyzate was purified and removed by hydroxyapatite chromatography. The GTase (capable of forming insoluble glucan) was eluted with an about 0.4 M phosphate buffer solution. The GTase-containing elute was used for the following test.
A purified GTase solution and a sample solution were added to 1 ml of a substrate solution [a 0.1 M phosphate buffer solution (pH 6.5) containing 2% of sucrose, 0.1% of sodium azide and 40 μM of dextran T10]. Water was added for dilution to make the total volume 2 ml. The resulting solution was subjected to a reaction at 37° C. for 18 hours. The amount of insoluble glucan formed by the reaction was measured as a turbidity expressed by an absorbance at 550 nm, and the formation ratio (%) of insoluble glucan was calculated using the following formula: […]
formation ratio (%) of insoluble glucan=(SS-SB).div.(CS-CB)×100 wherein SS: absorbance of sample, SB: absorbance of blank for sample (the blank contained no enzyme), CS: absorbance of control (containing no sample), and CB: absorbance of blank for control (the blank contained no sample and no enzyme).

[3] = target: T2, ACE (angiotensin I converting enzyme) (Homo sapiens, UniProt P12821); test: Test for ACE-inhibiting activity (commercial ACE, Bz-Gly-His-Leu substrate, fluorescence); assay type: biochemical
T2 construct: purchased
Experimental: The test for ACE-inhibiting activity was conducted by an ordinary method.
The ACE-inhibiting activity of the sample solution was expressed by the following formula: […]
where S: the fluorescent intensity of test solution,
C: the fluorescent intensity of comparative solution wherein water was used in place of the sample,
SB : the fluorescent intensity of blank for S (the blank contained water in place of the enzyme), and
CB : the fluorescent intensity of blank for C (the blank contained water in place of the enzyme).

[4] = test system: Salmonella typhimurium TA 98 or TA 100; test: Antimutagenic activity, modified Ames method with S 9-mix; assay type: cell-based; conditions: amount per plate
Experimental: In this Example, antimutagenic activity was measured by modifying the ames method (Mutation Research, vol. 31, p. 347, 1975).
An antimutagenic compound [benzo(a)pyrene or Trp-P-2] solution was mixed with a phosphate buffer solution, a sample solution, S 9-mix and a salmonella (a solution obtained by culturing Salmonella typhimurium TA 98 or TA 100 overnight). The mixture was cultured at 37° C. for 2 days. The number of the resulting colonies was counted. The amount of each polyphenol used was shown based on a scale expressed in geometric progression, between 1 and 300 μg/plate. Antimutagenic activity was calculated using the following formula: […]
antimutagenic activity (%)={(C-B)-(S-B)}).div.(C-B)×100 wherein S: number of colonies of test solution
C: number of colonies of control wherein water is used in place of the sample, and B: number of colonies of blank wherein water is used in place of the sample and the mutagenic com pound.

hyaluronidase = target: T3, hyaluronidase (Bos taurus, UniProt Q2YDK3); test: Test for hyaluronidase-inhibiting activity (commercial hyaluronidase activated with compound 48/80); assay type: biochemical; conditions: FIG. 16
T3 construct: purchased
T3 sequence (Q2YDK3 36-553): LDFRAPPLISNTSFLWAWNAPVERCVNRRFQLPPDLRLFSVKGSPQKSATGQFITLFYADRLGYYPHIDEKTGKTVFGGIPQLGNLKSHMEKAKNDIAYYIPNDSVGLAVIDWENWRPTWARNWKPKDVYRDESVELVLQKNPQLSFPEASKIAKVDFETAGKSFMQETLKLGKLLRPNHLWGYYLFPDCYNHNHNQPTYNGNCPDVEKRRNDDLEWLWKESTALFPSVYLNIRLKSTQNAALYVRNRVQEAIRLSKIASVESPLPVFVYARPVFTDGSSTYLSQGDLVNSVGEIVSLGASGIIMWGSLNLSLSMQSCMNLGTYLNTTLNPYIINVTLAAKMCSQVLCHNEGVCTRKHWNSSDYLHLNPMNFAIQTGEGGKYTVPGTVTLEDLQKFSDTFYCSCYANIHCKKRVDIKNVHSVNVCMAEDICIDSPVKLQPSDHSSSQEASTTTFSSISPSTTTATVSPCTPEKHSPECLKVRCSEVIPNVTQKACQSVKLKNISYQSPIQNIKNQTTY
Experimental: That is, a sample solution was added to a commercial hyaluronidase solution, and preincubation was conducted. […] Then, a hyaluronic acid solution was added as a substrate, and a reaction was allowed to take place.
The N-acetylglucosamine produced by the above reaction was subjected to the Elson-Morgan's procedure to develop a color. […] Hyaluronidase-inhibiting activity (%) was calculated using the following formula:
(%)={(C-CB)-(S-SB)}.div.(C-CB)×100
wherein S: absorbance of test solution,
C: absorbance of control wherein a buffer solution is used in place of the sample,
SB : absorbance of blank for S (the blank contained no enzyme), and
CB : absorbance of blank for C (the blank contained no sample and no enzyme).

T2 sequence (P12821 30-1306, species assumed): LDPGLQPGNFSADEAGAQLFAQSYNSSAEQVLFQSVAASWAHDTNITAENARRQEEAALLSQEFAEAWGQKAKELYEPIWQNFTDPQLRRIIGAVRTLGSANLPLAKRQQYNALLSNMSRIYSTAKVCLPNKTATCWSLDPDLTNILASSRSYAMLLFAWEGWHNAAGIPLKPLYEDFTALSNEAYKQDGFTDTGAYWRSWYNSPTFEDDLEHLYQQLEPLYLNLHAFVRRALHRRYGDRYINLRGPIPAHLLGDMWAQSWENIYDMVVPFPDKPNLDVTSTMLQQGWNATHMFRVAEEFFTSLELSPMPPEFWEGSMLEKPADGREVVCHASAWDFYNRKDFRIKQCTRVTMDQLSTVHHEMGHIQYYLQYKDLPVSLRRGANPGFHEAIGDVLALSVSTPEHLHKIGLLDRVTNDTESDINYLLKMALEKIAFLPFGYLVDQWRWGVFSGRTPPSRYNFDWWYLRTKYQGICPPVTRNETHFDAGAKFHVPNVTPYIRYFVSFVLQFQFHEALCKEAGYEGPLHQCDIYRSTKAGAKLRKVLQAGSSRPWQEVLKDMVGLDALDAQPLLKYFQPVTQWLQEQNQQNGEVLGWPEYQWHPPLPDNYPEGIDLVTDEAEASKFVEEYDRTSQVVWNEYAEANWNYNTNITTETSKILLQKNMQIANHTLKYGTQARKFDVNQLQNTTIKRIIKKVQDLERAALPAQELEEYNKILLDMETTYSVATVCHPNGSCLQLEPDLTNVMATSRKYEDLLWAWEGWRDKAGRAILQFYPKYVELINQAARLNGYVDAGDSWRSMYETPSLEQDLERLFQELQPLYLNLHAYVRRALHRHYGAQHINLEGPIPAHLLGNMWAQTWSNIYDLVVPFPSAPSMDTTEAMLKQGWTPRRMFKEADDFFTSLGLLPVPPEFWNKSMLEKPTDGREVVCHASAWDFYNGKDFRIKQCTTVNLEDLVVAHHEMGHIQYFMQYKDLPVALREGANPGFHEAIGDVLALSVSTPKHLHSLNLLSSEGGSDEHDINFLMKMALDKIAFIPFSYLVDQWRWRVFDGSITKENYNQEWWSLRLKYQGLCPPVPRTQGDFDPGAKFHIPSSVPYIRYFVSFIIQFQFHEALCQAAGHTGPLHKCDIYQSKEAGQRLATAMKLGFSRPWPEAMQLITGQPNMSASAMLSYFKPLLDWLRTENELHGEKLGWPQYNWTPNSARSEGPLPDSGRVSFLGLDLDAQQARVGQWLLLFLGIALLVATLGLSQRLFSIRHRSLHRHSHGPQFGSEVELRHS
T1 sequence (P27470 39-1592): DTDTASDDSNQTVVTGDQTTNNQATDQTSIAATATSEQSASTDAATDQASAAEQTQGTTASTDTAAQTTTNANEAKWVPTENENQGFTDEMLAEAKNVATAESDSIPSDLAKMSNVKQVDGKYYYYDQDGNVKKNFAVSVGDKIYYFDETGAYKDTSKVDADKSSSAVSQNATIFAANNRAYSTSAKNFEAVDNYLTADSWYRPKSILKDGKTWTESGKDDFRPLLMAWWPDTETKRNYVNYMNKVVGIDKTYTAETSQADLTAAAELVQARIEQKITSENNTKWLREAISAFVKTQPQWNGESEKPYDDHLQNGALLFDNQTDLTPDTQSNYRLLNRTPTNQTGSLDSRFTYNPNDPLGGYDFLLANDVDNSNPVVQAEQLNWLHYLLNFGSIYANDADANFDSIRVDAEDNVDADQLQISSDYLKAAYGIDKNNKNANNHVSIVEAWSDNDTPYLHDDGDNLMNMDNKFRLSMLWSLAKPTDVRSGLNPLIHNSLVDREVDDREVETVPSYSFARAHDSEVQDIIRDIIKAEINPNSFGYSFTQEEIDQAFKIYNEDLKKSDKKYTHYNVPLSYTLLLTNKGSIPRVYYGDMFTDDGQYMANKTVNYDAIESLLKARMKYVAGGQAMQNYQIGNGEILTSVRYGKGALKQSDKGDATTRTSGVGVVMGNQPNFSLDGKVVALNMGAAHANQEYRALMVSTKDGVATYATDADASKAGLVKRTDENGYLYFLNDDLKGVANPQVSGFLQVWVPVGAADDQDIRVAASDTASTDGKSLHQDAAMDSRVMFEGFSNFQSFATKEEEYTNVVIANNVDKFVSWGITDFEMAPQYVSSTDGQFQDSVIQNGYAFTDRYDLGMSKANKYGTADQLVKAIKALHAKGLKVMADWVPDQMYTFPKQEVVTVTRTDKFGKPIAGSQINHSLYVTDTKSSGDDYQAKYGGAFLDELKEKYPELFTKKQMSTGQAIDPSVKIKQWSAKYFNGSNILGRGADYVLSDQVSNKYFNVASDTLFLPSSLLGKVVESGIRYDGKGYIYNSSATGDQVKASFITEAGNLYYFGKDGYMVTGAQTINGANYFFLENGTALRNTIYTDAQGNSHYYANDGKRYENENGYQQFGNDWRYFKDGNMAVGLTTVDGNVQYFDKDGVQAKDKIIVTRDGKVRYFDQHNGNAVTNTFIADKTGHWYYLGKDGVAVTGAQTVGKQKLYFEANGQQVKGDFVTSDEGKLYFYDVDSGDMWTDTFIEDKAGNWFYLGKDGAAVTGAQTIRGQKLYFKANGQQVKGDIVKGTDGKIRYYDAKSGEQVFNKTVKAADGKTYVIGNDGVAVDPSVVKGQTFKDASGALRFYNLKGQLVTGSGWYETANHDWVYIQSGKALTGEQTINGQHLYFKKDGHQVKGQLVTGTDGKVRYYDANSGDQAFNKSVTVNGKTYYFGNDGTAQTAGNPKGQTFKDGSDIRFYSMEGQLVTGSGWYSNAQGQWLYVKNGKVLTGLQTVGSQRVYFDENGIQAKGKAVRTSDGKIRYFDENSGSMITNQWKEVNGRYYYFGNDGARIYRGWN

SMILES: Oc1cc(O)c2c(c1)O[C@H](c1ccc(O)c(O)c1)[C@@H](O)C2 [(+)-catechin]
- antioxidative activity (amount of peroxylipid formed, absorbance at 500 nm) [1]: antioxidative activities equivalent to those of BHA and BHT

SMILES: Oc1cc(O)c2c(c1)O[C@H](c1ccc(O)c(O)c1)[C@H](O)C2 [(-)-epicatechin]
- antioxidative activity (amount of peroxylipid formed, absorbance at 500 nm) [1]: antioxidative activities equivalent to those of BHA and BHT
- GTase-inhibiting activity (in words) [2]: very low GTase-inhibiting activity

SMILES: O=C(O[C@@H]1Cc2c(O)cc(O)cc2O[C@@H]1c1ccc(O)c(O)c1)c1cc(O)c(O)c(O)c1 [ECg, (-)-epicatechin gallate]
- IC50 ([3]; pure polyphenol compounds, FIG. 9, read-out: IC50 to ACE): 2000 µM
- IC50 [2]: ~452 µM

SMILES: O=C(O[C@@H]1Cc2c(O)cc(O)cc2O[C@@H]1c1cc(O)c(O)c(O)c1)c1cc(O)c(O)c(O)c1 [EGCg, (-)-epigallocatechin gallate]
- IC50 [3]: 300 µM
- amount showing 50% antimutagenic activity to Trp-P-2 ([4]; 1 μg of Trp-P-2, FIG. 13): about 51 μg
- amount showing 50% antimutagenic activity to benzo[a]pyrene ([4]; 5 μg of benzo[a]pyrene, FIG. 14): about 56 μg

- ACE-inhibiting activity (in words) [3]: no ACE-inhibiting activity
SMILES: NCCCC(=O)O [GABA, γ-aminobutyric acid]

SMILES: O=C(O)/C=C/c1ccc(O)c(O)c1 [caffeic acid]
- antioxidative activity (amount of peroxylipid formed, absorbance at 500 nm) [1]: antioxidative activities equivalent to those of BHA and BHT

SMILES: O=C(/C=C/c1ccc(O)c(O)c1)O[C@@H]1C[C@](O)(C(=O)O)C[C@@H](O)[C@H]1O [chlorogenic acid]
- GTase-inhibiting activity (in words) [2]: very low GTase-inhibiting activity

SMILES: O=C(O)/C=C/c1ccc(O)cc1 [p-coumaric acid]
- antioxidative activity (amount of peroxylipid formed, absorbance at 500 nm) [1]: no antioxidative activity

SMILES: O=C(CCc1ccc(O)cc1)c1c(O)cc(O)cc1O [phloretin]
- antioxidative activity (amount of peroxylipid formed, absorbance at 500 nm) [1]: no antioxidative activity

SMILES: O=C(CCc1ccc(O)cc1)c1c(O)cc(O)cc1O[C@@H]1O[C@H](CO)[C@@H](O)[C@H](O)[C@H]1O [phloridzin]
- antioxidative activity (amount of peroxylipid formed, absorbance at 500 nm) [1]: no antioxidative activity
- GTase-inhibiting activity (in words) [2]: very low GTase-inhibiting activity

SMILES: O=c1c(O)c(-c2ccc(O)c(O)c2)oc2cc(O)cc(O)c12 [quercetin]
- antioxidative activity (amount of peroxylipid formed, absorbance at 500 nm) [1]: antioxidative activities equivalent to those of BHA and BHT

SMILES: C[C@@H]1O[C@@H](OC[C@H]2O[C@@H](Oc3c(-c4ccc(O)c(O)c4)oc4cc(O)cc(O)c4c3=O)[C@H](O)[C@@H](O)[C@@H]2O)[C@H](O)[C@H](O)[C@H]1O [rutin]
- antioxidative activity (amount of peroxylipid formed, absorbance at 500 nm) [1]: antioxidative activities equivalent to those of BHA and BHT

- IC50 (hyaluronidase): ~109 µM
SMILES: O=C(O)c1cc(=O)c2c(OCC(O)COc3cccc4oc(C(=O)O)cc(=O)c34)cccc2o1 [sodium cromoglicate]
